The values that follow come from patent publication US4472386A, “5-Fluoro-(β-uridine or 2'-deoxy-β-uridine) derivatives, a process for producing the same and a carcinostatic agent containing the same” (Toyama Chemical Co., Ltd., priority 1978, dated 1984).

Bounds are passed on as bounds.

For series [1] the following is noted: C. Heidelberger et al. (1958); cited from earlier work.
For series [2], the system named is nucleotide-phosphorylase. Conditions: G. D. Birnie (1963); cited from earlier work.
Series [3] in a line: Acute toxicity test (b), oral LD50 (Table 4). As to conditions: mouse, in vivo. As for the experimental part:
(b) The test compound was suspended in 0.25% CMC solution and administered orally to SLC-ddY mice (5 weeks old, male, 6 mice per group). The number of dead mice was counted over the subsequent 3 weeks. LD50 value was calculated according to the method of Van der Waerden.

For series [4] the following is noted: C. Heidelberger et al. (1958); cited from earlier work. The source holds these as a separate data set.
Series [5] has as its system Ehrlich ascites carcinoma. Description: Carcinostatic test, oral, ED values (Table 5). Type of series: in vivo, ddY mice. As to conditions: Mus musculus, 336 h, oral once daily for 10 days, least square method; for ED30: read-out: ED30; for ED40: read-out: ED40. As for the experimental part:
Ehrlich ascites carcinoma was subcutaneously inoculated into the right inguinal region of ddY mice (5 weeks old, male, 8 mice per group) with 8×10^6 cells per mouse. Twenty four hours after the inoculation,5, 10, 20 or 40 mg/kg of a test drug suspended or dissolved in polyethylene glycol was administered orally to the test group successively once daily for 10 days, while the same quantity as above of 10% polyethylene glycol was administered orally to the control group. Fourteen days after the inoculation, the tumor was excised and weighed, from which the average tumor weight ratio between the test group and the control group (T/C) was calculated. ED value was determined by the least square method.

Series [6] concerns Ehrlich ascites carcinoma. Briefly: Inhibition of Ehrlich solid tumor in mice, intraperitoneal administration (Table 1). It counts as in vivo, ddY mice. Also noted: response vs control in vivo: dose or concentration left out as unconfirmed. As for the experimental part: (§1) 1. Experiment on the inhibition of Ehrlich solid tumor
Ehrlich ascites carcinoma was subcutaneously inoculated into the right inguinal region of ddY mice (5 weeks old, male, 8 mice per group) with 3×10^6 cells per mouse.
24 Hours after the inoculation, a test drug suspended or dissolved in 5% HCO 60 (a product manufactured by Nikkol) was administered intraperitoneally successively once daily for 7 days. To the control group, the same quantity as above of 5% HCO 60 was intraperitoneally administered in the same manner. Fourteen days after the inoculation, the tumor was excised and weighed, from which the average tumor weight ratio between the test group and the control group (T/C) was determined.

For series [7], the system named is Sarcoma-180 ascites tumor. Briefly: Inhibition of Sarcoma-180 ascites tumor in mice, intravenous administration (Table 3). As to conditions: 10 mg/kg i.v. once daily for 7 days; for T/C (average tumor weight ratio between test group and control group): Sarcoma-180, day 10. It counts as in vivo, ddY mice. As for the experimental part: 2. Experiment on the inhibition of Sarcoma-180 ascites tumor
Sarcoma-180 ascites tumor was subcutaneously inoculated into the right inguinal region of ddY mice (5 weeks old, male, 8 mice per group) with 3×10^6 cells per mouse. Twenty four hours after the inoculation,a test drug dissolved in 10% polyethylene glycol was administered intravenously to the test group successively once daily for 7 days, while the same quantity as above of 10% polyethylene glycol was intravenously administered to the control group. Ten days after the inoculation, the tumor was excised and weighed, from which the average tumor weight ratio between the test group and the control group (T/C) was determined.

For series [8], the system named is Ehrlich ascites carcinoma. Briefly: Inhibition of Ehrlich solid tumor in mice, oral administration starting six days after inoculation (Table 2). It counts as in vivo, ddY mice. As to conditions: for T/C (average tumor weight ratio between test group and control group): 60 mg/kg orally once daily for 10 days from day 6, Ehrlich, day 21. As for the experimental part:
as §1
Ehrlich ascites carcinoma was subcutaneously inoculated into the inguinal region of ddY mice (5 weeks old, male, 8 mice per group) with 3×10^6 cells per mouse. Six days after the inoculation, a test drug dissolved or suspended in 0.5% CMC solution was administered orally to the test group successively once daily for 10 days, while the same quantity as above of 0.5% CMC solution was orally administered to the control group. Twenty one days after the inoculation, the tumor was excised and weighed, from which the average tumor weight ratio between the test group and the control group (T/C) was determined.

The conditions of series [9]: cited from earlier work.
In series [10] the test system is SLC-ddY mice. Conditions: mouse, in vivo. The text has this:
(a) The test compound was suspended in 0.25% CMC solution and administered intraperitoneally to SLC-ddY mice (5 weeks old, male, 6 mice per group). The number of dead mice was counted over the subsequent three weeks.

The mark [11] stands for this setting: 40 mg/kg i.p. once daily for 7 days.
Setting [12] is: 60 mg/kg orally once daily for 10 days.

The LD50 is the dose at which mortality reaches 50%. For the compound `O=c1[nH]c(=O)n([C@H]2C[C@H](O)[C@@H](CO)O2)cc1F` [FUDR, 5-fluoro-2'-deoxy-β-uridine, reference compound], the toxicity entry in series [1] is “low toxicity”. Further, the “decomposition by nucleotide-phosphorylase to yield 5-fluorouracil” value in series [2] is given as “readily decomposed by nucleotide-phosphorylase”. In addition, the LD50 at 504 h in series [3] (oral, 3 weeks, Van der Waerden method) amounted to 1330 mg/kg. The “carcinostatic activity in vitro” value in [4] is “intense carcinostatic activity in vitro”. Further, in series [5], the ED30 stood at 19 mg/kg and the ED40 is 24 mg/kg. For the same compound, in [6] (setting [11]), the Body weight change result is reported as “+6.5 g” and the “No. of surviving mice/No. of total mice used” value is recorded as 8/8. In series [6] (Mus musculus, Ehrlich, ip, 336 h, read-out: T/C (average tumor weight ratio between test group and control group)), the response vs control in vivo at 40 mg/kg came out at 47.1%. In series [7], the Body weight change entry is recorded as “+3.9 g”; the “No. of surviving mice/No. of total mice used” value is 8/8; the “T/C (average tumor weight ratio between test group and control group)” value is 56.3%. Besides, in series [8] (setting [12]), the Body weight change was -2.7 g and the “No. of surviving mice/No. of total mice used” value was 8/8. In addition, in series [8], the “T/C (average tumor weight ratio between test group and control group)” value is given as 48.6%. Besides, the persistency in vivo entry in [9] is given as “lacks persistency”. Also, the excretion result in series [9] (in vivo) is “excreted rapidly”.

In the case of `O=C(c1ccc2c(c1)OCO2)n1c(=O)c(F)cn([C@H]2C[C@H](O)[C@@H](CO)O2)c1=O` [compound 27], in series [3] (po), the LD50 at 504 h is no less than 2290 mg/kg. In series [5], the ED30 was 6.4 mg/kg and the ED40 turned out to be 12 mg/kg. The Body weight change entry in [6] (setting [11]) is recorded as “+6.4 g”. Further, the response vs control in vivo in series [6] (Mus musculus, ip, 336 h, Ehrlich, day 14, read-out: T/C (average tumor weight ratio between test group and control group)) was 27.1%. In addition, in [7], the Body weight change entry is given as “+4.0 g”; the “No. of surviving mice/No. of total mice used” value was 8/8; the “T/C (average tumor weight ratio between test group and control group)” value is 45.3%. The “Number of dead mice” value in [10] is recorded as “no dead mice”. The Body weight change in series [8] (setting [12]) is -0.5 g. Further, in series [8], the “T/C (average tumor weight ratio between test group and control group)” value is on record as 30%.
